We go through 24 molecules from US20190083482A1, “PRMT5 INHIBITORS AND USES THEREOF” (Epizyme, Inc., priority 2017, published 2019).

Experiment [1] has as its system Z-138 cell line. Put plainly: Z-138 Proliferation Assay (Cell Titer Glo). As to conditions: Homo sapiens, 120 h; Z-138 cells, 5 days incubation, top concentration 20 μM. The format is cell-based. From the text:
Z-138 Proliferation Assay
Z-138 suspension cells were purchased from ATCC (American Type Culture Collection, Manassas, Va.). RPMI/Glutamax medium, penicillin-streptomycin, heat inactivated fetal bovine serum were purchased from Life Technologies, Grand Island, N.Y., USA. V-bottom polypropylene 384-well plates were purchased from Greiner Bio-One, Monroe, N.C., USA. Cell culture 384-well white opaque plates were purchased from Perkin Elmer, Waltham, Mass., USA. Cell-Titer Glo® was purchased from Promega Corporation, Madison, Wis., USA. SpectraMax M5 plate reader was purchased from Molecular Devices LLC, Sunnyvale, Calif., USA.
Z-138 suspension cells were maintained in growth medium (RPMI 1640 supplemented with 10% v/v heat inactivated fetal bovine serum and cultured at 37° C. under 5% CO2. Under assay conditions, cells were incubated in assay medium (RPMI 1640 supplemented with 10% v/v heat inactivated fetal bovine serum and 100 units/mL penicillin-streptomycin) at 37° C. under 5% CO2.
For the assessment of the effect of compounds on the proliferation of the Z-138 cell line, exponentially growing cells were plated in 384-well white opaque plates at a density of 10,000 cells/ml in a final volume of 50 μl of assay medium. A compound source plate was prepared by performing triplicate nine-point 3-fold serial dilutions in DMSO, beginning at 10 mM (final top concentration of compound in the assay was 20 μM and the DMSO was 0.2%). A 100 nL aliquot from the compound stock plate was added to its respective well in the cell plate. […] After addition of compounds, assay plates were incubated for 5 days at 37° C., 5% CO2, relative humidity >90%. Cell viability was measured by quantitation of ATP present in the cell cultures, adding 35 μl of Cell Titer Glo® reagent to the cell plates. Luminescence was read in the SpectraMax M5 microplate reader. The concentration of compound inhibiting cell viability by 50% was determined using a 4-parametric fit of the normalized dose response curves.
(ATP-based viability assays read luminescence as a measure of living cells.)

The target in experiment [2] is T1, PRMT5/MEP50 (Homo sapiens, UniProt O14744).
T1 construct: Flag-PRMT5; made in house; host or cells: Spodoptera frugiperda (SF9) insect cells, baculovirus
T1 sequence (O14744 with tags, fused parts or gaps): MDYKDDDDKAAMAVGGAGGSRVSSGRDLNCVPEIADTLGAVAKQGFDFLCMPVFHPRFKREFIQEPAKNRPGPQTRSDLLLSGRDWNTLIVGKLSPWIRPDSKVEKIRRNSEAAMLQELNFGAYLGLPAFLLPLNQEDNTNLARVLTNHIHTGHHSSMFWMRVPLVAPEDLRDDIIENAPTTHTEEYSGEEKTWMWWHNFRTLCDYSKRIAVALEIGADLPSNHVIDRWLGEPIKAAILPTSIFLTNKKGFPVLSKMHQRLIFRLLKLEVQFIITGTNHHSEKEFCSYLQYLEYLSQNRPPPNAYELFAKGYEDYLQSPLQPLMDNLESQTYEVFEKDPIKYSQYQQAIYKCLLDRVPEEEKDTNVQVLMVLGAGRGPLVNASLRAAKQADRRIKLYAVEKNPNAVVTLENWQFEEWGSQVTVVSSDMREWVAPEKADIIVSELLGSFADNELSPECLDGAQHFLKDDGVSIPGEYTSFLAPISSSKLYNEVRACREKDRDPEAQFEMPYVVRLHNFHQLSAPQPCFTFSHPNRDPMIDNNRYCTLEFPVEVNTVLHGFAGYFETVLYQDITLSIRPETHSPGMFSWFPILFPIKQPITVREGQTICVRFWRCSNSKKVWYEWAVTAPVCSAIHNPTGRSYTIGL
T1 sequence (Q9BQA1 with tags, fused parts or gaps partner limits assumed): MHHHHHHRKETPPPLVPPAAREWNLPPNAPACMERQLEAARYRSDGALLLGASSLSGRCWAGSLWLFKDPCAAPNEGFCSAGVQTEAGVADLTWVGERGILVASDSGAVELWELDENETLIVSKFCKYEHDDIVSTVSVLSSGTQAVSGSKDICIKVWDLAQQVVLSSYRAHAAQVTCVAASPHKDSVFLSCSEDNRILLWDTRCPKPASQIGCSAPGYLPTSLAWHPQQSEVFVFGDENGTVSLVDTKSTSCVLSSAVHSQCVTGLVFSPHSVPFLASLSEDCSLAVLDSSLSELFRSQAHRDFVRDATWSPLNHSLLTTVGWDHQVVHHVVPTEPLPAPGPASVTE
Put plainly: PRMT5 Biochemical Assay (PRMT5/MEP50 enzyme assay on peptide substrate, 3H-SAM Flashplate). As to conditions: PRMT5/MEP50 4 nM, 3H-SAM 75 nM, peptide 40 nM. The text has this:
S-adenosylmethionine (SAM), S-adenosylhomocysteine (SAH), bicine, KCl, Tween20, dimethylsulfoxide (DMSO), bovine skin gelatin (BSG), and Tris(2-carboxyethyl)phosphine hydrochloride solution (TCEP) were purchased from Sigma-Aldrich at the highest level of purity possible. ^3H-SAM was purchase from American Radiolabeled Chemicals with a specific activity of 80 C1/mmol. 384-well streptavidin Flashplates were purchased from PerkinElmer.
Peptide representative of human histone H4 residues 1-15 was synthesized with a C-terminal linker-affinity tag motif and a C-terminal amide cap by 21st Century Biochemicals.
The amplified genes were sublconed into pENTR/D/TEV (Life Technologies) and subsequently transferred by Gateway™ attL×attR recombination to pDEST8 baculvirus expression vector (Life Technologies).
Protein over-expression was accomplished by infecting exponentially growing Spodoptera frugiperda (SF9) cell culture at 1.2×10^6 cell/ml with a 5000 fold dilution of BIIC stock. Infections were carried out at 27° C. for 72 hours, harvested by centrifugation, and stored at −80° C. for purification.
Flag-PRMT5/6His-MeP50 was eluted with 300 mM Imidazole in the same buffer.
General Procedure for PRMT5/MEP50 Enzyme Assays on Peptide Substrates.
The assays were all performed in a buffer consisting of 20 mM Bicine (pH=7.6), 1 mM TCEP, 0.005% BSG, and 0.002% Tween20, prepared on the day of use. […] DMSO (1 ul) was added to Columns 11, 12, 23, 24, rows A-H for the maximum signal control and 1 ul of SAH, a known product and inhibitor of PRMT5/MEP50, was added to columns 11, 12, 23, 24, rows I-P for the minimum signal control. A cocktail (40 ul) containing the PRMT5/MEP50 enzyme and the peptide was added by Multidrop Combi (Thermo-Fisher). The compounds were allowed to incubate with PRMT5/MEP50 for 30 min at 25 degrees Celsius, then a cocktail (10 ul) containing ^3H-SAM was added to initiate the reaction (final volume=51 ul). […] The assays were stopped by the addition of non-radioactive SAM (10 ul) to a final concentration of 600 uM, which dilutes the ^3H-SAM to a level where its incorporation into the peptide substrate is no longer detectable. 50 ul of the reaction in the 384-well polypropylene plate was then transferred to a 384-well Flashplate and the biotinylated peptides were allowed to bind to the streptavidin surface for at least 1 hour before being washed three times with 0.1% Tween20 in a Biotek ELx405 plate washer. The plates were then read in a PerkinElmer TopCount plate reader to measure the quantity of ^3H-labeled peptide bound to the Flashplate surface, measured as disintegrations per minute (dpm) or alternatively, referred to as counts per minute (cpm).
Where dpm=disintegrations per minute, cmpd=signal in assay well, and min and max are the respective minimum and maximum signal controls.
Where top and bottom are the normally allowed to float, but may be fixed at 100 or 0 respectively in a 3-parameter fit. The Hill Coefficient normally allowed to float but may also be fixed at 1 in a 3-parameter fit. Y is the % inhibition and X is the compound concentration.

Experiment [3] has as its system symmetric di-methyl arginine in Z-138 cells. Put plainly: Z-138 Methylation Assay (In Cell Western for symmetric di-methyl arginine). Type of experiment: cell-based. The conditions noted are these: Homo sapiens, 96 hours incubation, read-out: ICW EC50. From the text: Z-138 suspension cells were purchased from ATCC (American Type Culture Collection, Manassas, Va.). RPMI/Glutamax medium, penicillin-streptomycin, heat inactivated fetal bovine serum, and D-PBS were purchased from Life Technologies, Grand Island, N.Y., USA. Odyssey blocking buffer, 800 CW goat anti-rabbit IgG (H+L) antibody, and Licor Odyssey infrared scanner were purchased from Licor Biosciences, Lincoln, Nebr., USA. Symmetric di-methyl arginine antibody was purchased from EMD Millipore, Billerica, Mass., USA. 16% Paraformaldehyde was purchased from Electron Microscopy Sciences, Hatfield, Pa., USA.
Z-138 suspension cells were maintained in growth medium (RPMI 1640 supplemented with 10% v/v heat inactivated fetal bovine serum and 100 units/mL penicillin-streptomycin) and cultured at 37° C. under 5% CO2.
Cell Treatment, in Cell Western (ICW) for Detection of Symmetric Di-Methyl Arginine and DNA Content.
Z-138 cells were seeded in assay medium at a concentration of 50,000 cells per mL to a 384-well cell culture plate with 50 μL per well. Compound (100 nL) from 384 well source plates was added directly to 384 well cell plate. Plates were incubated at 37° C., 5% CO2 for 96 hours. After four days of incubation, 40 μL of cells from incubated plates were added to poly-D-lysine coated 384 well culture plates (BD Biosciences 356697). Plates were incubated at room temperature for 30 minutes then incubated at 37° C., 5% CO2 for 5 hours. After the incubation, 40 μL per well of 8% paraformaldehyde in PBS (16% paraformaldahyde was diluted to 8% in PBS) was added to each plate and incubated for 30 minutes. Plates were transferred to a Biotek 405 plate washer and washed 5 times with 100 μL per well of wash buffer (1×PBS with 0.1% Triton X-100 (v/v)). Next 30 μL per well of Odyssey blocking buffer were added to each plate and incubated 1 hour at room temperature. Blocking buffer was removed and 20 μL per well of primary antibody was added (symmetric di-methyl arginine diluted 1:100 in Odyssey buffer with 0.1% Tween 20 (v/v)) and plates were incubated overnight (16 hours) at 4° C. Plates were washed 5 times with 100 μL per well of wash buffer. Next 20 μL per well of secondary antibody was added (1:200 800 CW goat anti-rabbit IgG (H+L) antibody, 1:1000 DRAQ5 (Biostatus limited) in Odyssey buffer with 0.1% Tween 20 (v/v)) and incubated for 1 hour at room temperature. The plates were washed 5 times with 100 μL per well wash buffer then 1 time with 100 μL per well of water. Plates were allowed to dry at room temperature then imaged on the Licor Odyssey machine which measures integrated intensity at 700 nm and 800 nm wavelengths. Both 700 and 800 channels were scanned.
First, the ratio for each well was determined by:
Each plate included fourteen control wells of DMSO only treatment (minimum inhibition) as well as fourteen control wells for maximum inhibition treated with 3 μM of a reference compound (Background wells). The average of the ratio values for each control type was calculated and used to determine the percent inhibition for each test well in the plate. Reference compound was serially diluted three-fold in DMSO for a total of nine test concentrations, beginning at 3 μM. Percent inhibition was determined and IC50 curves were generated using triplicate wells per concentration of compound.

Where only a bound is given, the exact number is not on record here.

`Cn1ncc2ccc(OCC(=O)NCC(O)CN3CCc4ccccc4C3)cc21` (stereo not shown) [Compound 23, N-(3-(3,4-dihydroisoquinolin-2(1H)-yl)-2-hydroxypropyl)-2-((1-methyl-1H-indazol-6-yl)oxy)acetamide]: the EC50 (usually the midpoint of the concentration-response curve) in experiment [1] fell in the range of 1 to 10 µM.
On to `Cn1cnc(-c2ccccc2OCC(=O)NCC(O)CN2CCc3ccccc3C2)c1` (stereo not shown) [Compound 153], for which, in experiment [2], the IC50 (as a rule, the concentration that inhibits the measured activity by half) was below 0.1 µM. Besides, the EC50 lay within 10 to 50 µM in experiment [1] and 0.101 to 1 µM in experiment [3].
On to `CN(c1ccccc1OCC(=O)NCC(O)CN1CCc2ccccc2C1)S(C)(=O)=O` (stereo not shown) [Compound 155], for which, in experiment [2], the IC50 is below 0.1 µM. For the same molecule, the EC50 in experiment [1] is 1 to 10 µM; in experiment [3] it was below 0.1 µM.
In the case of `Cc1nn(C)c2cccc(OCC(=O)NCC(O)CN3CCc4ccccc4C3)c12` (stereo not shown) [Compound 158], in experiment [2], the IC50 is below 0.1 µM. Besides, the EC50 in experiment [1] was 1 to 10 µM; in experiment [3], 0.101 to 1 µM.
Taken in the same sequence, the figures for `Cn1ncc2ccc(OCC(=O)NC[C@H](O)CN3CCc4ccccc4C3)cc21` [Compound 159] were below 0.1 µM, 1 to 10 µM and below 0.1 µM.
Turning to `Cn1ncc2ccc(OCC(=O)NC[C@@H](O)CN3CCc4ccccc4C3)cc21` [Compound 160], the EC50 in experiment [1] is above 20 µM; in experiment [3] it was 1 to 10 µM.
The corresponding values for `O=C(COc1cncc(C(=O)N2CCOCC2)c1)NCC(O)CN1CCc2ccccc2C1` (stereo not shown) [Compound 161] are above 20 µM and 1 to 10 µM.
Regarding `CC(=O)Nc1ccncc1OCC(=O)NCC(O)CN1CCc2ccccc2C1` (stereo not shown) [Compound 162], the 50% effective concentration (EC50) in experiment [1] was above 20 µM; in experiment [3], 1 to 10 µM.
As for `Cc1cn(C)c2cccc(OCC(=O)NC[C@H](O)CN3CCc4ccccc4C3)c12` [Compound 163], in experiment [2], the IC50 is below 0.1 µM. For the same molecule, the EC50 in experiment [1] is 1 to 10 µM; in experiment [3] it was 0.101 to 1 µM.
Taken in the same sequence, the figures for `Cc1cn(C)c2cccc(OCC(=O)NC[C@@H](O)CN3CCc4ccccc4C3)c12` [Compound 164] were below 0.1 µM, 0.101 to 1 µM and below 0.1 µM.
For the molecule `O=C(NCC(O)CN1CCc2ccccc2C1)C(O)c1ccccc1` (stereo not shown) [Compound 165], the EC50 in experiment [1] was above 20 µM; in experiment [3], 0.101 to 1 µM.
Take `Nc1ncnc2c(OCC(=O)NCC(O)CN3CCc4ccccc4C3)cccc12` (stereo not shown) [Compound 168]: in experiment [2], the half-maximal inhibitory concentration (IC50) was below 0.1 µM. Moreover, the values for the EC50 in experiment [1] and in experiment [3] were 1 to 10 µM and below 0.1 µM, respectively.
Take `CN(C)c1cccc(OCC(=O)NCC(O)CN2CCc3ccccc3C2)c1S(N)(=O)=O` (stereo not shown) [Compound 169]: the IC50 in experiment [2] is below 0.1 µM. Further, the figures for the EC50 in experiment [1] and in experiment [3] were 1 to 10 µM and below 0.1 µM, respectively.
In the case of `CC(NC(=O)COc1ccccc1S(N)(=O)=O)C(O)CN1CCc2ccccc2C1` (stereo not shown) [Compound 170], the IC50 in experiment [2] was below 0.1 µM. Further, the EC50 is 10 to 50 µM in experiment [1] and 0.101 to 1 µM in experiment [3].
Consider `O=C(COc1cncc(CN2CCOCC2)c1)NCC(O)CN1CCc2ccccc2C1` (stereo not shown) [Compound 172], for which the EC50 in experiment [1] is 10 to 50 µM; in experiment [3], 0.101 to 1 µM.
Taken in the same sequence, the figures for `O=C(Cc1ccc2c(c1)OCO2)NC[C@H](O)CN1CCc2ccccc2C1` [Compound 174] were above 20 µM and 0.101 to 1 µM.
Taken in the same sequence, the figures for `O=C(NC[C@H](O)CN1CCc2ccccc2C1)C1CNc2ccccc21` (stereo partly shown) [Compound 177] were 10 to 50 µM and 0.101 to 1 µM.
The corresponding values for `O=C(CC1CCc2ccccc21)NC[C@H](O)CN1CCc2ccccc2C1` (stereo partly shown) [Compound 178] are 1 to 10 µM and 0.101 to 1 µM.
For `O=C(CC1Cc2ccccc2C1)NC[C@H](O)CN1CCc2ccccc2C1` [Compound 179], the EC50 in experiment [1] is 10 to 50 µM; in experiment [3], 0.101 to 1 µM.
With `O=C(COc1cccc2cncnc12)NCC(O)CN1CCc2ccccc2C1` (stereo not shown) [Compound 181], the IC50 in experiment [2] was below 0.1 µM. The EC50 in experiment [3] is below 0.1 µM.
Regarding `O=C(Cc1c[nH]c2ccccc12)NC[C@H](O)CN1CCc2ccccc2C1` [Compound 182], the concentration for a half-maximal effect (EC50) in experiment [3] lay within 0.101 to 1 µM.
Same read-out and setting: to `O=C(NC[C@H](O)CN1CCc2ccccc2C1)C1COc2ccccc2O1` (stereo partly shown) [Compound 183] belongs 0.101 to 1 µM.
For the molecule `CN1CCN(c2cccc(OCC(=O)NC[C@@H](O)CN3CCc4ccccc4C3)c2)CC1` [Compound 190], in experiment [2], the IC50 was below 0.1 µM.
On the same count and under the same terms, to `CN(C)CCN(C)S(=O)(=O)c1ccccc1OCC(=O)NC[C@@H](O)CN1CCc2ccccc2C1` [Compound 191] belongs below 0.1 µM.
